Tests used:
[1] = target: eDHFR and FKBP(F36V) (UniProt P0ABQ4+P62942, F37V); assay: Size exclusion chromatography and SDS-PAGE of eDHFR / FKBP(F36V) mixture with ligand; assay type: binding
Experimental: FIG. 1: Efficiency and specificity of SLF′-TMP (compound 13) binding (comp. example 2). • In the absence of SLF′-TMP (solid line) or in the presence of 100 μM SLF′-TMP (compound 13, dashed line). • a) size exclusion chromatography profile • b) SDS-PAGE analysis
A size exclusion chromatography profile of a mixture of 100 μM eDHFR and FKBP(F36V) was performed in the absence or the presence of 100 μM SLF′-TMP (compound 13) (see FIG. 1a).
A SDS-PAGE analysis of fractions from the gel filtration was carried out in the absence and the presence of the ligand SLF′-TMP (compound 13), respectively (see FIG. 1b).

[2] = target: ECFP-eDHFR and YFP-FKBP(F36V) (UniProt P0ABQ4+P62942, F37V); assay: FRET titration of ligand-induced heterodimerization of recombinant fusion proteins; assay type: binding; settings: 400 nM ECFP-eDHFR and 400 nM YFP-FKBP(F36V)

CCC(C(=O)N1CCCCC1C(=O)O[C@H](CCc1ccc(OC)c(OC)c1)c1cccc(OCC(=O)NCCCOCCOCCOCCCNC(=O)COc2c(OC)cc(Cc3cnc(N)nc3N)cc2OC)c1)c1cc(OC)c(OC)c(OC)c1 (stereo partly shown) [SLF′-TMP]
binding to FKBP(F36V) and eDHFR by size exclusion chromatography ([1]; 100 μM eDHFR and FKBP(F36V), 100 μM ligand): binds effectively | binding to FKBP(F36V) and eDHFR by SDS-PAGE of gel filtration fractions ([1]; presence versus absence of ligand): binds to FKBP(F36V) and eDHFR | FRET signal (ratio of fluorescence 523 nm / 475 nm) upon titration [2]: dose-dependent increase | Kd ([2]; quadratic fit, read-out: dissociation constant Kd from FRET titration): 120 ± 40 nM
